From article PMC11808136, “Screening and identification of host signaling pathways for alleviating influenza-induced production of pro-inflammatory cytokines, IP-10, IL-8, and MCP-1, using a U937 cell-based influenza model” (Frontiers in Microbiology, 2025)
Counter-ions that a name gives are not always drawn. Like-named read-outs stand apart in the source and are kept apart here.

How the values were obtained:
[1] = test system: MCP-1 production in influenza virus-infected U937 cells (H1N1); assay: cells; type: cell-based
[2] = test system: IP-10 production in influenza virus-infected U937 cells (H1N1); assay: cells; type: cell-based
[3] = test system: IL-8 production in influenza virus-infected U937 cells (H1N1); assay: cells; type: cell-based, Human
in vitro = settings: human
[4] = secondary screen, Supplemental Table 1, read-out: EC50 MCP-1
[5] = secondary screen, Supplemental Table 1
[6] = secondary screen, Supplemental Table 1, read-out: EC50 IP-10
[7] = secondary screen, Supplemental Table 1, read-out: EC50 IL-8
[8] = Homo sapiens, U-937, read-out: EC50 MCP-1
[9] = Homo sapiens, U-937, read-out: EC50 IP-10
[10] = CC50, secondary screen, Supplemental Table 1
[11] = Homo sapiens, U-937, secondary screen, Supplemental Table 1, read-out: EC50 IL-8
[12] = Homo sapiens, U-937, secondary screen, Supplemental Table 1, read-out: EC50 MCP-1
[13] = Homo sapiens, U-937, secondary screen, Supplemental Table 1, read-out: EC50 IP-10
[14] = Homo sapiens, U-937, read-out: EC50 IL-8

Cc1ccc(NC(=O)c2cccc(C(C)(C)C#N)c2)cc1Nc1ccc2ncn(C)c(=O)c2c1 [AZ 628]
EC50 [1, 4]: 180 nM | CC50 (U937 cells; [5]): > 100000 nM | EC50 [2, 6]: 970 nM | EC50 [3, 7]: 100 nM

Cc1cc(Nc2nc(N[C@@H](C)c3ccc(F)cc3)c(C#N)cc2F)n[nH]1 [AZ 960]
EC50 [1, 8]: < 5 nM | EC50 [2, 9]: 10 nM | CC50 (in vitro; [10]): 6000 nM | EC50 [3, 11]: < 5 nM

Cc1ccc(-n2nc(C(C)(C)C)cc2NC(=O)Nc2ccc(OCCN3CCOCC3)c3ccccc23)cc1 [BIRB 796, Doramapimod]
EC50 [1, 8]: 10000 nM | IC50 ([1]; Homo sapiens, U-937, read-out: IC50 MCP-1): 10000 nM | EC50 [2, 9]: 9200 nM | CC50 (in vitro): > 100000 nM | IC50 ([3]; Homo sapiens, U-937): 5200 nM | EC50 [3, 11]: 5220 nM

O=C(Nc1cccc(Nc2ncc(Br)c(NCCc3cnc[nH]3)n2)c1)N1CCCC1 [BX-912]
EC50 [1, 4]: 360 nM | CC50 (U937 cells; [5]): > 100000 nM | EC50 [2, 6]: 1050 nM | EC50 [3, 7]: 410 nM

Cc1ccc(NC(=O)c2ccc(CN3CC[C@H](N(C)C)C3)c(C(F)(F)F)c2)cc1Nc1nccc(-c2cncnc2)n1 [Bafetinib (INNO-406), Bafetinib]
EC50 [1, 8]: 860 nM | EC50 [2, 9]: 410 nM | CC50 (in vitro; [10]): 100000 nM | EC50 [3, 11]: 590 nM

CN1CCN(c2cccc(Nc3nc4c(-c5ccc(S(C)(=O)=O)cc5)cccn4n3)c2)CC1 [CEP-33779]
EC50 [1, 4]: 240 nM | CC50 (U937 cells; [5]): 10500 nM | EC50 [2, 6]: 220 nM | EC50 [3, 7]: 360 nM

CC#CC(=O)Nc1ccc2ncnc(Nc3cccc(Br)c3)c2c1 [CL-387785 (EKI-785)]
EC50 [1, 4]: 640 nM | CC50 (U937 cells; [5]): 7090 nM | EC50 [2, 6]: 410 nM | EC50 [3, 7]: 420 nM

C=CC(=O)Nc1cccc(Nc2nc(Nc3ccc(Oc4ccnc(C(=O)NC)c4)cc3)ncc2F)c1 [CNX-774]
EC50 [1, 4]: 160 nM | CC50 (U937 cells; [5]): 15500 nM | EC50 [2, 6]: 1460 nM | EC50 [3, 7]: 10 nM

N#CCNC(=O)c1ccc(-c2ccnc(Nc3ccc(N4CCOCC4)cc3)n2)cc1 [CYT387]
EC50 [1, 12]: 30 nM | EC50 [2, 13]: 480 nM | CC50 (in vitro; [10]): 5400 nM | EC50 [3, 11]: 300 nM

CCS(=O)(=O)N1CCN(c2ccc(Nc3ncc(C(N)=O)c(NC4CC4)n3)cc2)CC1 [Cerdulatinib (PRT062070, PRT2070), Cerdulatinib]
EC50 [1, 12]: 20 nM | EC50 [2, 13]: 50 nM | CC50 (in vitro; [10]): 3500 nM | EC50 [3, 11]: < 5 nM

C=CC(=O)Nc1ccc(CN2C(=O)N(c3cc(OC)cc(OC)c3)Cc3cnc(Nc4ccc(N5CCN(C)CC5)cc4)nc32)cc1 [FIIN-2]
EC50 [1, 4]: 140 nM | CC50 (U937 cells; [5]): 16700 nM | EC50 [2, 6]: 320 nM | EC50 [3, 7]: 30 nM

COc1cc(Nc2ncc(F)c(Nc3ccc4c(n3)N(COP(=O)(O)O)C(=O)C(C)(C)O4)n2)cc(OC)c1OC [Fostamatinib (R788), Fostamatinib]
EC50 [1, 12]: 170 nM | EC50 [2, 13]: 500 nM | CC50 (in vitro; [10]): 40000 nM | EC50 [3, 11]: 340 nM

Cc1ccc(C(=O)Nc2ccc(CN3CCN(C)CC3)c(C(F)(F)F)c2)cc1C#Cc1cnc2[nH]ncc2c1 [GZD824]
EC50 [1, 12]: < 5 nM | EC50 [2, 13]: < 5 nM | CC50 (in vitro; [10]): 4800 nM | EC50 [3, 11]: < 5 nM

O=C(c1ccc(Nc2nccc(-c3cc4ccccc4s3)n2)cc1)N1CCC(N2CCCC2)CC1 [IKK-16 (IKK Inhibitor VII)]
EC50 [1, 4]: < 5 nM | CC50 (U937 cells; [5]): 8900 nM | EC50 [2, 6]: < 5 nM | EC50 [3, 7]: < 5 nM

O=C(Nc1cc(C(F)(F)F)cc(C(F)(F)F)c1)c1cc(Cl)ccc1O [IMD 0354]
EC50 [1, 12]: 60 nM | EC50 [2, 13]: 80 nM | CC50 (in vitro): 1100 nM | EC50 [3, 11]: 20 nM

CC(C)n1nc(-c2ccc3oc(N)nc3c2)c2c(N)ncnc21 [INK 128 (MLN0128)]
EC50 [1, 4]: 40 nM | CC50 (U937 cells; [5]): 5900 nM | EC50 [2, 6]: 120 nM

Cc1cc(Nc2cc(CN3CCOCC3)c3nc(C)c(Cc4ccc(Cl)cc4F)n3n2)n[nH]1 [LY2784544]
EC50 [1, 12]: < 5 nM | EC50 [2, 13]: 10 nM | CC50 (in vitro; [10]): 26000 nM | EC50 [3, 11]: < 5 nM

C[C@@H](Oc1ccc2[nH]nc(/C=C/c3cnn(CCO)c3)c2c1)c1c(Cl)cncc1Cl [LY2874455]
EC50 [1, 12]: < 5 nM | EC50 [2, 13]: < 5 nM | CC50 (in vitro; [10]): 3400 nM | EC50 [3, 11]: < 5 nM

CNS(=O)(=O)C[C@H]1CC[C@H](N(C)c2ncnc3[nH]ccc23)CC1 [Oclacitinib]
EC50 [1, 8]: 190 nM | EC50 [2, 9]: 180 nM | CC50 (in vitro; [10]): 50000 nM | EC50 [3, 11]: 50 nM

NC(=O)c1cnc2[nH]ccc2c1N[C@@H]1[C@@H]2CC3C[C@H]1C[C@@](O)(C3)C2 [Peficitinb (ASP015K, JNJ-54781532), Peficitinb]
EC50 [1, 4]: 10 nM | CC50 (U937 cells; [5]): 34700 nM | EC50 [2, 6]: 20 nM

CCOc1cc2ncc(C#N)c(Nc3ccc(F)c(Cl)c3)c2cc1NC(=O)/C=C/CN(C)C [Pelitinib (EKB-569), Pelitinib]
EC50 [1, 12]: 20 nM | EC50 [2, 13]: 130 nM | CC50 (in vitro; [10]): 1700 nM

C=CC(=O)N1CCC(Oc2cc3c(Nc4ccc(Cl)c(Cl)c4F)ncnc3cc2OC)CC1 [Poziotinib (HM781-36B), Poziotinib]
EC50 [1, 12]: 660 nM | EC50 [2, 13]: 570 nM | CC50 (in vitro; [10]): 24100 nM | EC50 [3, 11]: 340 nM

COc1cc(Nc2ncc(F)c(Nc3ccc4c(n3)NC(=O)C(C)(C)O4)n2)cc(OC)c1OC [R406 (free base)]
EC50 [1, 4]: 1130 nM | CC50 (U937 cells; [5]): > 100000 nM | EC50 [2, 6]: 700 nM | EC50 [3, 7]: 2750 nM

COc1cc(Nc2ncc(F)c(Nc3ccc4c(n3)N(COP(=O)(O)O)C(=O)C(C)(C)O4)n2)cc(OC)c1OC [R788 (Fostamatinib) Disodium]
EC50 [1, 4]: 160 nM | CC50 (U937 cells; [5]): 7400 nM | EC50 [2, 6]: 390 nM | EC50 [3, 7]: 60 nM

CNC(=O)c1cc(Oc2ccc(NC(=O)Nc3ccc(Cl)c(C(F)(F)F)c3)c(F)c2)ccn1 [Regorafenib (BAY 73-4506), Regorafenib]
EC50 [1, 12]: 1710 nM | EC50 [2, 13]: 1800 nM | CC50 (in vitro; [10]): 20000 nM | EC50 [3, 11]: 610 nM

N#CC[C@H](C1CCCC1)n1cc(-c2ncnc3[nH]ccc23)cn1 [Ruxolitinib (INCB018424), Ruxolitinib]
EC50 [1, 12]: 30 nM | EC50 [2, 13]: 70 nM | CC50 (in vitro; CC50): 100000 nM | EC50 [3, 14]: 120 nM

Cc1cc(Nc2ncc3c(n2)N(C)C(=O)N(c2cc(NC(=O)c4cccc(C(F)(F)F)c4)ccc2C)C3)n(C)n1 [SC1]
EC50 [1, 4]: 40 nM | CC50 (U937 cells; [5]): > 100000 nM | EC50 [2, 6]: 10 nM | EC50 [3, 7]: < 5 nM

Cc1c[nH]c2nc(Nc3ccc(N4CCN(C)CC4)c(F)c3)nc(-c3cccc(CC#N)c3)c12 [SGI-7079]
EC50 [1, 4]: < 5 nM | CC50 (U937 cells; [5]): 3850 nM | EC50 [2, 6]: < 5 nM | EC50 [3, 7]: < 5 nM

CCN(CC)CCNC(=O)c1c(C)[nH]c(/C=C2\C(=O)Nc3ccc(F)cc32)c1C [Sunitinib Malate]
EC50 [1, 12]: 350 nM | EC50 [2, 13]: 660 nM | CC50 (in vitro; [10]): 24900 nM | EC50 [3, 11]: 50 nM

Cn1c(=O)c(F)c(Nc2ccc(I)cc2F)c2c(=O)n(C[C@@H](O)CO)cnc21 [TAK-733]
EC50 [1, 12]: 40 nM | EC50 [2, 13]: 1400 nM | CC50 (in vitro; CC50): 45000 nM | EC50 [3, 14]: < 5 nM

NC(=O)Nc1sc(-c2ccc(F)cc2)cc1C(N)=O [TPCA-1]
EC50 [1, 4]: 120 nM | CC50 (U937 cells; [5]): 11000 nM | EC50 [2, 6]: 70 nM | EC50 [3, 7]: 280 nM

C[C@@H]1CCN(C(=O)CC#N)C[C@@H]1N(C)c1ncnc2[nH]ccc12 [Tofacitinib (CP-690550) Citrate]
CC50 (U937 cells; [5]): > 100000 nM

C[C@@H]1CCN(C(=O)CC#N)C[C@@H]1N(C)c1ncnc2[nH]ccc12 [Tofacitinib]
CC50 (in vitro; CC50): > 100000 nM

CC(C)(C)c1cc(C=C(C#N)C#N)cc(C(C)(C)C)c1O [Tyrphostin 9]
EC50 [1, 4]: 80 nM | CC50 (U937 cells; [5]): 8260 nM | EC50 [2, 6]: 90 nM | EC50 [3, 7]: 40 nM

C=CC(=O)Nc1cccc(Oc2nc(Nc3ccc(N4CCN(C)CC4)cc3)ncc2Cl)c1 [WZ3146]
EC50 [1, 4]: < 5 nM | CC50 (U937 cells): 14000 nM | EC50 [2, 6]: 680 nM | EC50 [3, 7]: 10 nM

S-Ruxolitinib [S-Ruxolitinib (INCB018424)]
EC50 ([1]; read-out: EC50 MCP-1): 60 nM | EC50 ([2]; read-out: EC50 IP-10): 80 nM | EC50 ([3]; read-out: EC50 IL-8): 30 nM
